Where two headings read alike, the source gives them in different places.
Assays:
cyclin D1/cdk 4 enzyme = biological target: T1, cyclin D1/cdk 4 enzyme (Homo sapiens, UniProt P11802); assay: CDK4 ELISA kinase assay (phospho-Rb ser 795 detection); assay type: biochemical
T1 construct: made in house; host or cells: Sf9 insect cells, recombinant baculovirus
In short: (§1)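 Wells were coated overnight with GST-Rb C-terminal fragment, then blocked. Compound (10 ug/ml final) and cyclin/CDK enzyme from baculovirus-infected Sf9 cells with 200 μM ATP reacted 1 h at 30° C. Ser795 phosphorylation was detected by ELISA at 450 nm.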

cyclin E/CDK2 enzyme = biological target: T2, cyclin E/CDK2 enzyme (Homo sapiens, UniProt P24941); assay: CDK2 ELISA kinase assay (phospho-Rb ser 795 detection); assay type: biochemical
T2 construct: made in house; host or cells: Sf9 insect cells, recombinant baculovirus
In short: as §1

cyclin B/CDK1 enzyme = biological target: T3, cyclin B/CDK1 enzyme (Homo sapiens, UniProt P06493); assay: CDK1 ELISA kinase assay (phospho-Rb ser 795 detection); assay type: biochemical
T3 construct: purchased New England BioLabs; host or cells: Sf9 insect cells, recombinant baculovirus
T3 sequence (P06493 whole entry): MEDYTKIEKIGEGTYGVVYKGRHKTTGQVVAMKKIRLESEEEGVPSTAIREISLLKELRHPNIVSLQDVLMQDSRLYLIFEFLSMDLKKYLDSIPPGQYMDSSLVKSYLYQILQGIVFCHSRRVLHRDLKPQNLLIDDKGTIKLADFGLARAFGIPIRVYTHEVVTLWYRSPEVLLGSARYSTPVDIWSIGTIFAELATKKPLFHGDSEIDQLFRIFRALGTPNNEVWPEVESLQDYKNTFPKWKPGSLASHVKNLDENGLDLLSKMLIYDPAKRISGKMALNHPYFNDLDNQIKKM
T3 sequence (P14635 whole entry partner): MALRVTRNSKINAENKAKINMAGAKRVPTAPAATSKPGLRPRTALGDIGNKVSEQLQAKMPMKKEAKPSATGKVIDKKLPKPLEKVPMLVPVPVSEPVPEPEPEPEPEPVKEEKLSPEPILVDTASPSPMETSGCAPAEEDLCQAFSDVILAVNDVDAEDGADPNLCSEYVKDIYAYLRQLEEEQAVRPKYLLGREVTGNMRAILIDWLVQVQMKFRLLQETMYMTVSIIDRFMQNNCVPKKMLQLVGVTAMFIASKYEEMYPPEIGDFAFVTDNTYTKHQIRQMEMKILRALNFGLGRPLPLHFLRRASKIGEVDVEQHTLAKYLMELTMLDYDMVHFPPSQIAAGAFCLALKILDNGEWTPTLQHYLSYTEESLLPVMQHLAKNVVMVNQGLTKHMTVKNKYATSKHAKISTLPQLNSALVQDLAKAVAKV
In short: as §1

BT474 = assay: Cytotoxicity assay (SRB), BT474; assay type: cell-based
In short: (§2)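 Percentage survival is derived from SRB absorbance (540 nm) versus untreated cells. Exposures were 3 days, except 6 days for BT474, at 37 °C and 7% CO2.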

HCT-116 = assay: Cytotoxicity assay (SRB), HCT-116; assay type: cell-based; details: HCT116 cells, SRB, read-out: In Vitro Cellular Activity IC50 HCT116
In short: as §2

LoVo = assay: Cytotoxicity assay (SRB), LoVo; assay type: cell-based; details: LoVo cells, SRB, read-out: In Vitro Cellular Activity IC50 LOVO
In short: as §2

MCF-7 = assay: Cytotoxicity assay (SRB), MCF-7; assay type: cell-based; details: MCF-7 cells, SRB, read-out: In Vitro Cellular Activity IC50 MCF-7
In short: as §2

[1] = In Vitro Enzyme Assays, 200 μM ATP, read-out: CDK4 IC50
[2] = In Vitro Enzyme Assays, read-out: CDK2 IC50
[3] = In Vitro Enzyme Assays, read-out: CDK1 IC50
[4] = Homo sapiens, BT-474, 144 h, BT474 cells, 6 days, SRB; read-out: In Vitro Cellular Activity IC50 BT474
[5] = Homo sapiens, HCT-116, 72 h, 3 days
[6] = Homo sapiens, LoVo, 72 h, 3 days
[7] = Homo sapiens, MCF7, 72 h, 3 days
[8] = In Vitro Enzyme Assay, cyclin D1/cdk 4, read-out: CDK4 IC50
[9] = In Vitro Enzyme Assay, cyclin E/CDK2, read-out: CDK2 IC50
[10] = In Vitro Enzyme Assay, cyclin B/CDK1, read-out: CDK1 IC50
[11] = Homo sapiens, BT-474, 144 h, BT474 cells, SRB, 6 days; read-out: In Vitro Cellular Activity IC50 BT474
[12] = Homo sapiens, HCT-116, 72 h, three days
[13] = Homo sapiens, LoVo, 72 h, three days
[14] = Homo sapiens, MCF7, 72 h, three days

T1 sequence (P11802 whole entry, species assumed): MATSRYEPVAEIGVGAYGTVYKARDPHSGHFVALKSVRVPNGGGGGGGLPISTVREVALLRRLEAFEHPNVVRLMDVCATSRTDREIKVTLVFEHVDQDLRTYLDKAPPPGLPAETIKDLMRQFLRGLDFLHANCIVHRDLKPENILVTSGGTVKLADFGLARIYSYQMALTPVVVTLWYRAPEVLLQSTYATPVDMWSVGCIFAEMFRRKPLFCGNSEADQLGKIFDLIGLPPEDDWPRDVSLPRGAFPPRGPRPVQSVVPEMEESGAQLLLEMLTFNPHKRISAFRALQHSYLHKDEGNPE
T1 sequence (P24385 whole entry partner, species assumed): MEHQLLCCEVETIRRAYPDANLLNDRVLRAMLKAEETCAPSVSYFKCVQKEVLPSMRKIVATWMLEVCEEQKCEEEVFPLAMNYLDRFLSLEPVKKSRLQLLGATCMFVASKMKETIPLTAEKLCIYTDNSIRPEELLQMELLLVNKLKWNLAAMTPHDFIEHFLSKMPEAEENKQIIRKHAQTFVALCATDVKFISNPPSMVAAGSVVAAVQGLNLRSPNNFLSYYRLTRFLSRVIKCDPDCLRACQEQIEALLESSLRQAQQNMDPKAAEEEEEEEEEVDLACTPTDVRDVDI

| Compound | IC50 (cyclin D1/cdk 4 enzyme; [1]) | IC50 (cyclin E/CDK2 enzyme; [2]) | IC50 (cyclin B/CDK1 enzyme; [3]) | IC50 (BT474; [4]) | IC50 (HCT-116; [5]) | IC50 (LoVo; [6]) | IC50 (MCF-7; [7]) | IC50 (cyclin D1/cdk 4 enzyme; [8]) | IC50 (cyclin E/CDK2 enzyme; [9]) | IC50 (cyclin B/CDK1 enzyme; [10]) | IC50 (BT474; BT474 cells, 6 days, SRB; read-out: In Vitro Cellular Activity IC50 BT474) | IC50 (HCT-116; 3 days) | IC50 (LoVo; 3 days) | IC50 (MCF-7; 3 days) | IC50 (BT474; [11]) | IC50 (HCT-116; [12]) | IC50 (LoVo; [13]) | IC50 (MCF-7; [14]) |
| --- | --- | --- | --- | --- | --- | --- | --- | --- | --- | --- | --- | --- | --- | --- | --- | --- | --- | --- |
| O=C1NC(=O)c2ccc(-c3ccc(Cl)s3)cc2/C1=C/Nc1ccc(CN2CCC[C@H]2CO)cc1 [Example 441, 6-(5-Chloro-thiophen-2-yl)-4-{[4-(2-hydroxymethyl-pyrrolidin-1-ylmethyl)-phenylamino]-methylene}-4H-isoquinoline-1,3-dione] | 0.14 µM | > 50 µM | > 50 µM | 3.2 µM | 1.1 µM | 2.9 µM | 2.3 µM | – | – | – | – | – | – | – | – | – | – | – |
| 6-Bromo-4-[(4-methoxy-phenylamino)-methylene]-1,4-dihydro-2H-isoquinolin-3-one & 8-Bromo-4-[(4-methoxy-phenylamino)-methylene]-1,4-dihydro-2H-isoquinolin-3-one [Example 844] | – | – | – | – | – | – | – | 34.7 µM | > 50 µM | > 50 µM | 27.1 µM | 28 µM | 26.7 µM | 26.1 µM | – | – | – | – |
| COc1ccc(CNC=C2C(=O)NC(=O)c3ccc(-c4ccc5[nH]ccc5c4)cc32)cc1O [Example 835, 4-[(3-Hydroxy-4-methoxy-benzylamino)-methylene]-6-(1H-indol-5-yl)-4H-isoquinoline-1,3-dione] | – | – | – | 11.7 µM | 10 µM | 11.3 µM | 12.6 µM | 0.04 µM | 40.6 µM | 35.5 µM | – | – | – | – | – | – | – | – |
| CC(CN(C)C)N1CCN(c2ccc(N/C=C3\C(=O)NC(=O)c4ccc(I)cc43)cc2)CC1 (stereo not drawn) [Example 400, (4Z)-4-{[(4-{4-[2-(Dimethylamino)-1-methylethyl]piperazin-1-yl}phenyl)amino]methylene}-6-iodoisoquinoline-1,3(2H,4H)-dione] | 0.34 µM | > 50 µM | > 50 µM | 9.33 µM | 2.9 µM | 8.6 µM | 8.7 µM | – | – | – | – | – | – | – | – | – | – | – |
| O=C1NC(=O)c2ccc(I)cc2/C1=C/Nc1ccc(N2CCN(C3CCC3)CC2)cc1 [Example 392, (4Z)-4-({[4-(4-Cyclobutylpiperazin-1-yl)phenyl]amino}methylene)-6-iodoisoquinoline-1,3(2H,4H)-dione] | 0.69 µM | 33.2 µM | > 50 µM | 3.8 µM | 2.5 µM | 4.8 µM | 4.2 µM | – | – | – | – | – | – | – | – | – | – | – |
| O=C1NC(=O)c2ccc(C=Cn3ccnc3)cc2C1=CNCc1ccc(O)c(O)c1 [Example 667, 4-[(3,4-Dihydroxy-benzylamino)-methylene]-6-(2-imidazol-1-yl-vinyl)-4H-isoquinoline-1,3-dione] | – | – | – | > 50 µM | > 50 µM | 29.4 µM | 12.4 µM | 0.01 µM | 4 µM | > 50 µM | – | – | – | – | – | – | – | – |
| CCOC[C@@H]1CCCN1Cc1ccc(N/C=C2\C(=O)NC(=O)c3ccc(I)cc32)cc1 [Example 411, 4-{[4-(2-Ethoxymethyl-pyrrolidin-1-ylmethyl)-phenylamino]-methylene}-6-iodo-4H-isoquinoline-1,3-dione] | 0.7 µM | > 50 µM | > 50 µM | 0.45 µM | 3.8 µM | 3.5 µM | 1.6 µM | – | – | – | – | – | – | – | – | – | – | – |
| COc1ccc(CNC=C2C(=O)NC(=O)c3ccc(-c4ccc[nH]4)cc32)cc1O [Example 836, 4-[(3-Hydroxy-4-methoxy-benzylamino)-methylene]-6-(1H-pyrrol-2-yl)-4H-isoquinoline-1,3-dione] | – | – | – | 12.8 µM | 12.7 µM | 6.8 µM | 17.7 µM | 0.01 µM | 15.4 µM | 28.3 µM | – | – | – | – | – | – | – | – |
| CN1Cc2ccc(N/C=C3\C(=O)NC(=O)c4ccc(Br)cc43)cc2C1 [Example 259, (4Z)-6-Bromo-4-{[(2-methyl-2,3-dihydro-1H-isoindol-5-yl)amino]methylene}isoquinoline-1,3(2H,4H)-dione] | 1.2 µM | 2.5 µM | 20.7 µM | – | – | – | – | – | – | – | – | – | – | – | 6.8 µM | 2.5 µM | 3.9 µM | 5.5 µM |
| O=C1NC(=O)c2ccc(I)cc2/C1=C/NCc1ccc(NC(=O)c2ccco2)c(O)c1 [Example 516, N-[2-Hydroxy-4-({[(Z)-(6-iodo-1,3-dioxo-2,3-dihydroisoquinolin-4(1H)-ylidene)methyl]amino}methyl)phenyl]-2-furamide] | – | – | – | 18.2 µM | 3.83 µM | 21.4 µM | 24.1 µM | 0.22 µM | > 50 µM | > 50 µM | – | – | – | – | – | – | – | – |
| O=C1CC[C@@H](CN/C=C2\C(=O)NC(=O)c3ccc(I)cc32)N1 (stereo in doubt) [Example 427, 6-Iodo-4-{[(5-oxo-pyrrolidin-2-ylmethyl)-amino]-methylene}-4H-isoquinoline-1,3-dione] | 2.1 µM | > 50 µM | > 50 µM | 23.2 µM | 17.8 µM | 22.7 µM | 22.4 µM | – | – | – | – | – | – | – | – | – | – | – |
| Cc1ncsc1C=Cc1ccc2c(c1)C(=CNCc1ccc(S(N)(=O)=O)cc1)C(=O)NC2=O [Example 659, 4-[({6-[2-(4-Methyl-thiazol-5-yl)-vinyl]-1,3-dioxo-2,3-dihydro-1H-isoquinolin-4-ylidenemethyl}-amino)-methyl]-benzenesulfonamide] | – | – | – | 23.1 µM | 26 µM | > 50 µM | 40.9 µM | 0.44 µM | 18 µM | > 50 µM | – | – | – | – | – | – | – | – |
| COC(=O)[C@H]1CCCN1Cc1ccc(NC=C2C(=O)NC(=O)c3ccc(I)cc32)cc1 [Example 367, D-1-{4-[(6-Iodo-1,3-dioxo-2,3-dihydro-1H-isoquinolin-4-ylidenemethyl)-amino]-benzyl}-pyrrolidine-2-carboxylic acid methyl ester] | 12.6 µM | 43.4 µM | > 50 µM | – | – | – | – | – | – | – | – | – | – | – | 15 µM | 13 µM | 26 µM | 13 µM |
| CN1CCN(c2ccc(N/C=C3\C(=O)NC(=O)c4ccc(-c5ccc(C#N)cc5)cc43)cc2)CC1 [Example 153, 4-(4-{[4-(4-Methyl-piperazin-1-yl)-phenylamino]-methylene}-1,3-dioxo-1,2,3,4-tetrahydro-isoquinolin-6-yl)-benzonitrile] | 0.8 µM | 4.3 µM | 4.3 µM | – | – | – | – | – | – | – | – | – | – | – | 3.4 µM | 1.1 µM | 3.7 µM | 3.4 µM |
| O=C1NC(=O)c2ccc(I)cc2/C1=C/Nc1ccc(N2CCN(Cc3ccoc3)CC2)cc1 [Example 390, (4Z)-4-[({4-[4-(3-Furylmethyl)piperazin-1-yl]phenyl}amino)methylene]-6-iodoisoquinoline-1,3(2H,4H)-dione] | 0.88 µM | 19.3 µM | 1.45 µM | > 50 µM | 17 µM | > 50 µM | 22 µM | – | – | – | – | – | – | – | – | – | – | – |
| CN(C)CCCc1ccc(N/C=C2\C(=O)NC(=O)c3ccc(Br)cc32)cc1 [Example 270, (4Z)-6-Bromo-4-[({4-[3-(dimethylamino)propyl]phenyl}amino)methylene]isoquinoline-1,3(2H,4H)-dione] | 3 µM | 38.8 µM | > 50 µM | – | – | – | – | – | – | – | – | – | – | – | 27 µM | 13 µM | 24 µM | 7.2 µM |
| COC[C@@H]1CCCN1Cc1ccc(N/C=C2\C(=O)NC(=O)c3ccc(I)cc32)cc1 [Example 285, (4Z)-6-Iodo-4-{[(4-{[(2S)-2-(methoxymethyl)pyrrolidin-1-yl]methyl}phenyl)amino]methylene}isoquinoline-1,3(2H,4H)-dione] | 0.76 µM | > 50 µM | > 50 µM | – | – | – | – | – | – | – | – | – | – | – | 0.37 µM | 3.6 µM | 3.6 µM | 0.79 µM |
| O=C1NC(=O)c2ccc(Br)cc2/C1=C/NCCCN1CCCC1=O [Example 311, (Z)-6-Bromo-4-((3-(2-oxopyrrolidin-1-yl)propylamino)methylene)isoquinoline-1,3(2H,4H)-dione] | 8.6 µM | > 50 µM | > 50 µM | – | – | – | – | – | – | – | – | – | – | – | 38 µM | 29 µM | 19 µM | 13 µM |
